Data taken from article PMC10318822, “Phase 1 dose-escalation study to evaluate the safety, tolerability, pharmacokinetics, and anti-tumor activity of FCN-159 in adults with neurofibromatosis type 1-related unresectable plexiform neurofibromas” (BMC Medicine, 2023).

System: adult patients with NF1-related PN
Assay: Phase I dose-escalation: DLT, MTD, RP2D and drug-related TEAEs (CTCAE v5.0)
Protocol: This is a multicenter, open-label, single-arm, non-randomized, phase I dose-escalation trial to evaluate the safety, tolerability, pharmacokinetic (PK), and anti-tumor activity of orally administered FCN-159 in adult patients with NF1 (NCT04954001). Phase I commenced with dose escalation in adult patients following a standard 3 + 3 design (Supplementary Table S1) to determine the maximum tolerated dose (MTD) of FCN-159 administered daily under fasting conditions (defined as no food or drink 1 h before and 2 h after each dose) in 28-day cycles. Study drug was dispensed at the study site and patient adherence was monitored by the records of drug dispensation and return. Patients were on treatment until PD, death, patient's voluntary withdrawal from study treatment, or study termination. The study was followed for 2 years after the last patient in. The starting dose was 4 mg, escalating in cohorts of at least three evaluable patients at 6 mg, 8 mg, and 12 mg until the MTD was determined. The starting dose in this study was determined based on available data from a phase 1a, first-in-human study of FCN-159 in patients with advanced NRAS ^mut+ melanoma at the time of study design. […] Dose expansion at a likely RP2D level enrolled approximately six patients. The highest dose level with a dose-limiting toxicity (DLT) incidence rate ≤ 33% (0/3 or 1/6 patients) was to be considered the MTD. If patients experienced grade ≥ 3 and/or unacceptable toxic events that were considered as at least possibly related to the study treatment, the study treatment was discontinued and supportive treatment was given in accordance with local treatment routines. If the toxicity returned to grade ≤ 2 within 28 days after the occurrence, and there was no progression on patients’ conditions or the investigator believed that patients could benefit from the study treatment, the original dose could be maintained or reduced after discussion with medical monitor. After completion of the dose escalation part of the study, PK, efficacy, safety, and tolerability data were analyzed to select the RP2D.
Primary endpoints of the study were the DLT incidence rate, MTD, and RP2D. Secondary endpoints included other safety assessments, imaging tumor response (complete response [CR], PR, stable disease [SD], or progressive disease [PD]), and PK parameters of FCN-159. Adverse events were graded per CTCAE v5.0.
All patients underwent a complete medical history, physical examination, Eastern Cooperative Oncology Group (ECOG) assessment, and laboratory analysis of test results. Drug-related TEAEs, serious adverse events (SAEs), TEAEs of grade ≥ 3 toxicity, and TEAEs leading to drug discontinuation were reviewed on an ongoing basis. Efficacy was assessed by radiologic scans and clinical assessment. Tumor assessments per Response Evaluation in Neurofibromatosis Schwannomatosis criteria were performed by investigators using MRI volumetric analysis every 4 cycles within the first 2 years (± 7 days) and every 6 cycles after 2 years (± 14 days) until PD, death, patient's voluntary withdrawal from study treatment, or study termination. MRI sequences of […], T1- and T2-weighted sequences were chosen and the software of Extended Brilliance Workspace, SIGNA Premier and uExceed were used for MRI volumetric analysis. The same software was used for all tumor assessments at baseline and subsequent assessed timepoints of the same patient. Pain was assessed by an 11-point numerical rating scale (NRS-11).
The sample size for the dose-escalation study was estimated to be 24 based on the 3 + 3 method. Safety was analyzed in patients who received at least one dose of FCN-159 and had at least one safety assessment. DLT was assessed in the DLT analysis set, defined as patients who were enrolled in the dose-escalation study and met the DLT evaluation criteria.

Cn1c(=O)c(F)c(Nc2ccc(I)cc2F)c2c(=O)n(C3CC3)nc(-c3cccc(NS(=O)(=O)C4CC4)c3)c21 [FCN-159]
DLT events (4 mg): No DLT events were observed
Drug-related TEAE: Abdominal pain (4 mg (N = 3)): 0 n (%)
Drug-related TEAE: Acne (4 mg (N = 3)): 0 n (%)
Drug-related TEAE: Acne pustular (4 mg (N = 3)): 0 n (%)
Drug-related TEAE: Alanine aminotransferase increased (4 mg (N = 3)): 0 n (%)
Drug-related TEAE: Albumin globulin ratio decreased (4 mg (N = 3)): 0 n (%)
Drug-related TEAE: Alopecia (4 mg (N = 3)): 0 n (%)
Drug-related TEAE: Amylase increased (4 mg (N = 3)): 0 n (%)
Drug-related TEAE: Anemia (4 mg (N = 3)): 0 n (%)
Drug-related TEAE: Aortic dilatation (4 mg (N = 3)): 0 n (%)
Drug-related TEAE: Aspartate aminotransferase increased (4 mg (N = 3)): 0 n (%)
Drug-related TEAE: Asthenia (4 mg (N = 3)): 0 n (%)
Drug-related TEAE: Beta globulin decreased (4 mg (N = 3)): 1 (33.3) n (%)
Drug-related TEAE: Beta globulin increased (4 mg (N = 3)): 1 (33.3) n (%)
Drug-related TEAE: Blood alkaline phosphatase increased (4 mg (N = 3)): 0 n (%)
Drug-related TEAE: Blood bilirubin increased (4 mg (N = 3)): 1 (33.3) n (%)
Drug-related TEAE: Blood creatine phosphokinase increased (4 mg (N = 3)): 1 (33.3) n (%)
Drug-related TEAE: Blood fibrinogen increased (4 mg (N = 3)): 0 n (%)
Drug-related TEAE: Blood lactate dehydrogenase increased (4 mg (N = 3)): 1 (33.3) n (%)
Drug-related TEAE: Blood pressure increased (4 mg (N = 3)): 0 n (%)
Drug-related TEAE: Blood urea increased (4 mg (N = 3)): 1 (33.3) n (%)
Drug-related TEAE: Blood uric acid increased (4 mg (N = 3)): 1 (33.3) n (%)
Drug-related TEAE: Breath odor (4 mg (N = 3)): 0 n (%)
Drug-related TEAE: Capillary disorder (4 mg (N = 3)): 1 (33.3) n (%)
Drug-related TEAE: Constipation (4 mg (N = 3)): 0 n (%)
Drug-related TEAE: Decreased appetite (4 mg (N = 3)): 0 n (%)
Drug-related TEAE: Dermatitis acneiform (4 mg (N = 3)): 0 n (%)
Drug-related TEAE: Diarrhea (4 mg (N = 3)): 0 n (%)
Drug-related TEAE: Drug eruption (4 mg (N = 3)): 1 (33.3) n (%)
Drug-related TEAE: Dyslipidemia (4 mg (N = 3)): 1 (33.3) n (%)
Drug-related TEAE: Ejection fraction decreased (4 mg (N = 3)): 0 n (%)
Drug-related TEAE: Electrocardiogram QT prolonged (4 mg (N = 3)): 0 n (%)
Drug-related TEAE: Electrocardiogram abnormal (4 mg (N = 3)): 0 n (%)
Drug-related TEAE: Epistaxis (4 mg (N = 3)): 1 (33.3) n (%)
Drug-related TEAE: Folliculitis (4 mg (N = 3)): 0 n (%)
Drug-related TEAE: Functional gastrointestinal disorder (4 mg (N = 3)): 0 n (%)
Drug-related TEAE: Gamma-glutamyltransferase increased (4 mg (N = 3)): 0 n (%)
Drug-related TEAE: Gingival pain (4 mg (N = 3)): 0 n (%)
Drug-related TEAE: Hyperlipidemia (4 mg (N = 3)): 0 n (%)
Drug-related TEAE: Hypertension (4 mg (N = 3)): 0 n (%)
Drug-related TEAE: Hypoalbuminemia (4 mg (N = 3)): 0 n (%)
Drug-related TEAE: Hypocalcemia (4 mg (N = 3)): 0 n (%)
Drug-related TEAE: Hypophosphatemia (4 mg (N = 3)): 0 n (%)
Drug-related TEAE: Hypoproteinemia (4 mg (N = 3)): 0 n (%)
Drug-related TEAE: Immunoglobulins increased (4 mg (N = 3)): 2 (66.7) n (%)
Drug-related TEAE: Impetigo (4 mg (N = 3)): 1 (33.3) n (%)
Drug-related TEAE: Left atrial enlargement (4 mg (N = 3)): 0 n (%)
Drug-related TEAE: Lipoprotein abnormal (4 mg (N = 3)): 1 (33.3) n (%)
Drug-related TEAE: Malaise (4 mg (N = 3)): 1 (33.3) n (%)
Drug-related TEAE: Menstrual disorder (4 mg (N = 3)): 0 n (%)
Drug-related TEAE: Mitral valve incompetence (4 mg (N = 3)): 0 n (%)
Drug-related TEAE: Mouth ulceration (4 mg (N = 3)): 0 n (%)
Drug-related TEAE: Muscular weakness (4 mg (N = 3)): 0 n (%)
Drug-related TEAE: Oedema peripheral (4 mg (N = 3)): 0 n (%)
Drug-related TEAE: Pain in extremity (4 mg (N = 3)): 1 (33.3) n (%)
Drug-related TEAE: Paronychia (4 mg (N = 3)): 1 (33.3) n (%)
Drug-related TEAE: Prealbumin decreased (4 mg (N = 3)): 0 n (%)
Drug-related TEAE: Protein urine present (4 mg (N = 3)): 1 (33.3) n (%)
Drug-related TEAE: Pruritus (4 mg (N = 3)): 0 n (%)
Drug-related TEAE: QRS axis abnormal (4 mg (N = 3)): 1 (33.3) n (%)
Drug-related TEAE: Rash (4 mg (N = 3)): 1 (33.3) n (%)
Drug-related TEAE: Sinus arrhythmia (4 mg (N = 3)): 1 (33.3) n (%)
Drug-related TEAE: Sinus bradycardia (4 mg (N = 3)): 1 (33.3) n (%)
Drug-related TEAE: Sinusitis (4 mg (N = 3)): 0 n (%)
Drug-related TEAE: Skin exfoliation (4 mg (N = 3)): 0 n (%)
Drug-related TEAE: Specific gravity urine increased (4 mg (N = 3)): 1 (33.3) n (%)
Drug-related TEAE: Stomatitis (4 mg (N = 3)): 2 (66.7) n (%)
Drug-related TEAE: Supraventricular extrasystoles (4 mg (N = 3)): 1 (33.3) n (%)
Drug-related TEAE: Total bile acids increased (4 mg (N = 3)): 1 (33.3) n (%)
Drug-related TEAE: Tricuspid valve incompetence (4 mg (N = 3)): 0 n (%)
Drug-related TEAE: Urinary occult blood positive (4 mg (N = 3)): 0 n (%)
Drug-related TEAE: Urinary sediment present (4 mg (N = 3)): 0 n (%)
Drug-related TEAE: Urinary tract infection (4 mg (N = 3)): 0 n (%)
Drug-related TEAE: Urine ketone body present (4 mg (N = 3)): 0 n (%)
Drug-related TEAE: Urobilinogen urine increased (4 mg (N = 3)): 2 (66.7) n (%)
Drug-related TEAE: Urticaria (4 mg (N = 3)): 0 n (%)
Drug-related TEAE: Vision blurred (4 mg (N = 3)): 0 n (%)
Drug-related TEAE: Visual acuity reduced (4 mg (N = 3)): 0 n (%)
Drug-related TEAE: pH urine decreased (4 mg (N = 3)): 0 n (%)
Drug-related TEAE: pH urine increased (4 mg (N = 3)): 1 (33.3) n (%)
Subjects with any drug-related TEAE (4 mg (N = 3)): 3 (100) n (%)
DLT events (6 mg): No DLT events were observed
Drug-related TEAE: Abdominal pain (6 mg (N = 4)): 0 n (%)
Drug-related TEAE: Acne (6 mg (N = 4)): 1 (25.0) n (%)
Drug-related TEAE: Acne pustular (6 mg (N = 4)): 0 n (%)
Drug-related TEAE: Alanine aminotransferase increased (6 mg (N = 4)): 1 (25.0) n (%)
Drug-related TEAE: Albumin globulin ratio decreased (6 mg (N = 4)): 0 n (%)
Drug-related TEAE: Alopecia (6 mg (N = 4)): 1 (25.0) n (%)
Drug-related TEAE: Amylase increased (6 mg (N = 4)): 0 n (%)
Drug-related TEAE: Anemia (6 mg (N = 4)): 0 n (%)
Drug-related TEAE: Aortic dilatation (6 mg (N = 4)): 0 n (%)
Drug-related TEAE: Aspartate aminotransferase increased (6 mg (N = 4)): 2 (50.0) n (%)
Drug-related TEAE: Asthenia (6 mg (N = 4)): 1 (25.0) n (%)
Drug-related TEAE: Beta globulin decreased (6 mg (N = 4)): 0 n (%)
Drug-related TEAE: Beta globulin increased (6 mg (N = 4)): 1 (25.0) n (%)
Drug-related TEAE: Blood alkaline phosphatase increased (6 mg (N = 4)): 1 (25.0) n (%)
Drug-related TEAE: Blood bilirubin increased (6 mg (N = 4)): 2 (50.0) n (%)
Drug-related TEAE: Blood creatine phosphokinase increased (6 mg (N = 4)): 0 n (%)
Drug-related TEAE: Blood fibrinogen increased (6 mg (N = 4)): 0 n (%)
Drug-related TEAE: Blood lactate dehydrogenase increased (6 mg (N = 4)): 1 (25.0) n (%)
Drug-related TEAE: Blood pressure increased (6 mg (N = 4)): 0 n (%)
Drug-related TEAE: Blood urea increased (6 mg (N = 4)): 2 (50.0) n (%)
Drug-related TEAE: Blood uric acid increased (6 mg (N = 4)): 1 (25.0) n (%)
Drug-related TEAE: Breath odor (6 mg (N = 4)): 2 (50.0) n (%)
Drug-related TEAE: Capillary disorder (6 mg (N = 4)): 0 n (%)
Drug-related TEAE: Constipation (6 mg (N = 4)): 0 n (%)
